The test system of assay [1] is L. donovani HU3 strain in mouse peritoneal macrophages. Put plainly: Assay for proliferation of Leishmania parasites in infected mouse peritoneal macrophages (SybrGreen staining, high-content imaging, 5 days). Conditions: L. donovani in mouse peritoneal macrophages, read-out: L. donovani Macrophage EC50. The assay is classed as cell-based, Leishmania donovani.
Assay [2] relates to Leishmania donovani axenic amastigote parasites. Briefly: Leishmania donovani axenic amastigote proliferation assay (Cell TiterGlo luminescence, 2 day incubation). The class given is cell-based. Conditions: Leishmania donovani, read-out: L. donovani amastigotes EC50. (In general: Cellular ATP, detected with luciferase, serves as a proxy for viable cell number.)
Setting [3] is: Leishmania donovani, Peritoneal macrophage, inhibition of proliferation.
The mark [4] stands for this setting: axenic amastigotes, inhibition of proliferation.
[5] abbreviates: Leishmania donovani, Peritoneal macrophage.

Where two headings read alike, the source gives them in different places.

Regarding `CC(C)OC(=O)Nc1cnc2nc(-c3cccc(NC(=O)N4CCCC4)c3)cn2c1` [Compound 5], the EC50 in assay [1] (setting [3]) amounted to 4000 nM; in assay [2] (setting [4]) it was 1080 nM.
Taken in the same sequence, the figures for `CC(C)OC(=O)Nc1cnc2nc(-c3cccc(NC(=O)c4cnccn4)c3)cn2c1` [Compound 7] were 1860 nM and 2530 nM.
For `CC(C)OC(=O)Nc1cnc2nc(-c3cccc(NC(=O)c4ccco4)c3)cn2c1` [Compound 8], the EC50 was found to be 4700 nM in assay [1] (setting [3]) and 1590 nM in assay [2] (setting [4]).
On to `CON(C)C(=O)Nc1cccc(-c2cn3cc(NC(=O)OC(C)C)cnc3n2)c1` [Compound 14], for which the EC50 in assay [1] (inhibition of proliferation) came to 3200 nM.
Turning to `CC(C)OC(=O)Nc1cnc2nc(-c3cc(NC(=O)N4CCCC4)ccc3Cl)c(F)n2c1` [Compound 15, isopropyl (2-(2-chloro-5-(pyrrolidine-1-carboxamido)phenyl)-3-fluoroimidazo[1,2-a]pyrimidin-6-yl)carbamate], the results for the EC50 in assay [1] (setting [3]) and in assay [2] (setting [4]) were 2950 nM and 1500 nM, respectively.
For `CC(C)OC(=O)Nc1cnc2nc(-c3cc(NC(=O)N4CCCC4)ccc3F)cn2c1` [Compound 17] the same measures were 350 nM and 410 nM.
As for `CC(C)OC(=O)Nc1cnc2nc(-c3cc([N+](=O)[O-])ccc3F)cn2c1` [Compound 19, isopropyl (2-(2-fluoro-5-nitrophenyl)imidazo[1,2-a]pyrimidin-6-yl)carbamate], the values for the EC50 in assay [1] (setting [3]) and in assay [2] (setting [4]) were 46900 nM and 19100 nM, respectively.
For the compound `COCCOC(=O)Nc1cccc(-c2cn3cc(NC(=O)OC(C)C)cnc3n2)c1` [Compound 23], the EC50 in assay [1] (setting [3]) amounted to 24700 nM; in assay [2] (setting [4]) it was 7300 nM.
For `O=C(Nc1ccc(Cl)c(-c2cn3cc(-c4ccccc4)cnc3n2)c1)N1CCCC1` [Compound 29], the concentration giving a half-maximal response (EC50) is 152 nM in assay [1] (setting [3]) and 36 nM in assay [2] (setting [4]).
With `CNc1ccc(-c2cnc3nc(-c4cc(NC(=O)OCCOC)ccc4Cl)cn3c2)cc1` [Compound 36], the EC50 amounted to 1280 nM in assay [1] (setting [3]) and 560 nM in assay [2] (setting [4]).
For `Cc1nc(C)c(C(=O)Nc2ccc(F)c(-c3cn4cc(NC(=O)OC(C)C)cnc4n3)c2)o1` [Compound 61], the EC50 was 715 nM in assay [1] (setting [3]) and 245 nM in assay [2] (setting [4]).
Turning to `Cc1nc(C(=O)Nc2ccc(F)c(-c3cn4cc(NC(=O)OC(C)C)cnc4n3)c2)c(C)o1` [Compound 62], the EC50 stood at 11600 nM in assay [1] (setting [3]) and 2000 nM in assay [2] (setting [4]).
For `CC(C)OC(=O)Nc1cnc2nc(-c3cc(NC(=O)c4ccc(Cl)o4)ccc3F)cn2c1` [Compound 64, isopropyl (2-(5-(5-chlorofuran-2-carboxamido)-2-fluorophenyl)imidazo[1,2-a]pyrimidin-6-yl)carbamate], the EC50 in assay [1] (setting [3]) turned out to be 469 nM; in assay [2] (setting [4]), 161 nM.
With `CC(C)OC(=O)Nc1cnc2nc(-c3cc(NC(=O)c4cocn4)ccc3F)cn2c1` [Compound 65], the EC50 in assay [1] (setting [3]) was determined as 9130 nM; in assay [2] (setting [4]), 2040 nM.
As to `CC(C)OC(=O)Nc1cnc2nc(-c3cc(NC(=O)c4ccc[nH]4)ccc3F)cn2c1` [Compound 71], the EC50 in assay [1] (setting [3]) turned out to be 3230 nM; in assay [2] (setting [4]), 1890 nM.
`CC(C)OC(=O)Nc1cnc2nc(-c3cc(NC(=O)c4ccno4)ccc3F)cn2c1` [Compound 72]: the EC50 in assay [1] (setting [3]) is 8390 nM; in assay [2] (setting [4]) it was 764 nM.
Consider `CC(C)OC(=O)Nc1cnc2nc(-c3cc(NC(=O)c4cccn4C)ccc3F)cn2c1` [Compound 73], for which the figures for the EC50 in assay [1] (setting [3]) and in assay [2] (setting [4]) were 15200 nM and 1290 nM, respectively.
On to `CC(C)OC(=O)Nc1cnc2nc(-c3cc(NC(=O)c4cc5cc(Cl)ccc5[nH]4)ccc3F)cn2c1` [Compound 89], for which the EC50 was greater than 50000 nM in assay [1] (setting [3]) and greater than 25000 nM in assay [2] (setting [4]).
`CC(C)OC(=O)Nc1cnc2nc(-c3cc(NC(=O)c4cnc(Br)s4)ccc3F)cn2c1` [Compound 91]: the EC50 in assay [1] (setting [3]) came to 24100 nM; in assay [2] (setting [4]) it was 4610 nM.
In the case of `CC(C)OC(=O)Nc1cnc2nc(-c3cc(NC(=O)c4cc5cccc(F)c5[nH]4)ccc3F)cn2c1` [Compound 93], the EC50 is greater than 50000 nM in assay [1] (setting [3]) and greater than 25000 nM in assay [2] (setting [4]).
Turning to `CC(C)OC(=O)Nc1cnc2nc(-c3cc(NC(=O)c4cnc(N)o4)ccc3F)cn2c1` [Compound 94], the EC50 in assay [1] (setting [3]) was greater than 50000 nM; in assay [2] (setting [4]), greater than 25000 nM.
Take `Cc1ncc(C(=O)Nc2ccc(F)c(-c3cn4cc(NC(=O)OC(C)C)cnc4n3)c2)o1` [Compound 95]: the half-maximal effective concentration (EC50) in assay [1] (setting [3]) is 188 nM; in assay [2] (setting [4]) it was 69 nM.
Turning to `CC(C)OC(=O)Nc1cnc2nc(-c3cc(NC(=O)c4ncco4)ccc3F)cn2c1` [Compound 99], the 50% effective concentration (EC50) in assay [1] (setting [3]) stood at 9920 nM; in assay [2] (setting [4]) it was 2980 nM.
For `CC(C)OC(=O)Nc1cnc2nc(-c3cc(NC(=O)c4cnc(Cl)[nH]4)ccc3F)cn2c1` [Compound 100] the same measures were greater than 50000 nM and greater than 25000 nM.
Taken in the same sequence, the figures for `CC(C)OC(=O)Nc1cnc2nc(-c3cc(NC(=O)c4ccc(C#N)o4)ccc3F)cn2c1` [Compound 107] were 298 nM and 84 nM.
In the case of `CC1=C(C(=O)Nc2cnc3nc(-c4cc(NC(=O)N5CCCC5)ccc4F)cn3c2)OCCO1` [Compound 122], the EC50 in assay [2] (setting [4]) came to 80 nM.
For the compound `CC(C)OC(=O)NCc1cnc2nc(-c3cc(NC(=O)c4ccc(F)o4)ccc3F)cn2c1` [Compound 207], the EC50 is greater than 40300 nM in assay [1] (setting [3]) and 7140 nM in assay [2] (setting [4]).
For `CC(C)OC(=O)Nc1cnc2nc(-c3cc(NC(=O)N(C)C)ccc3F)cn2c1` [Compound 219] the same measures were 2150 nM and 752 nM.
In the case of `CCNC(=O)Nc1ccc(Cl)c(-c2cn3cc(NC(=O)OC(C)C)cnc3n2)c1` [Compound 254], the EC50 in assay [1] (setting [3]) is greater than 18300 nM; in assay [2] (setting [4]), 6900 nM.
In the case of `CC(=O)N[C@@H]1CCN(C(=O)Nc2ccc(Cl)c(-c3cn4cc(NC(=O)OC(C)C)cnc4n3)c2)C1` [Compound 271], the values for the EC50 in assay [1] (setting [3]) and in assay [2] (setting [4]) were greater than 50000 nM and greater than 25000 nM, respectively.
Take `CCN(CC)C(=O)Nc1ccc(Cl)c(-c2cn3cc(NC(=O)OC(C)C)cnc3n2)c1` [Compound 274]: the EC50 in assay [1] (setting [3]) is 1900 nM; in assay [2] (setting [4]), 862 nM.
As for `CC(C)OC(=O)Nc1cnc2nc(-c3cc(NC(=O)N4CC(F)(F)C4)ccc3F)cn2c1` [Compound 289], the EC50 in assay [1] (setting [3]) came out at 321 nM; in assay [2] (setting [4]), 141 nM.
As to `CC(C)OC(=O)Nc1cnc2nc(-c3cc(NC(=O)N4CC(S(C)(=O)=O)C4)ccc3F)cn2c1` [Compound 292], the EC50 was greater than 43500 nM in assay [1] (setting [3]) and greater than 25000 nM in assay [2] (setting [4]).
For `CC(C)OC(=O)Nc1cnc2nc(-c3cc(NC(=O)N4CCC4C(=O)O)ccc3F)cn2c1` (centres unmarked) [Compound 295] the same measures were greater than 50000 nM and greater than 25000 nM.
For `CN(CC(F)(F)F)C(=O)Nc1ccc(F)c(-c2cn3cc(-c4ccccc4)cnc3n2)c1` [Compound 325], the EC50 is 722 nM in assay [1] (setting [3]) and 154 nM in assay [2] (setting [4]).
For `CC(C)OC(=O)Nc1ccc(-c2cnc3nc(-c4cc(NC(=O)N5CCCC5)ccc4F)cn3c2)cc1` [Compound 340] the same measures were 2120 nM and 707 nM.
As to `O=C(Nc1ccc(F)c(-c2cn3cc(-c4ccnc(C(F)(F)F)c4)cnc3n2)c1)N1CCCC1` [Compound 341], the figures for the EC50 in assay [1] (setting [3]) and in assay [2] (setting [4]) were 9430 nM and 2600 nM, respectively.
For `Cc1nc(C)c(C(=O)Nc2ccc(F)c(-c3cn4cc(-c5cnoc5)cnc4n3)c2)o1` [Compound 367] the same measures were greater than 50000 nM and greater than 25000 nM.
As to `O=C(Nc1ccc(F)c(-c2cn3cc(C(F)(F)F)cnc3n2)c1)N1CC(F)C1` [Compound 587, 3-fluoro-N-(4-fluoro-3-(6-(trifluoromethyl)imidazo[1,2-a]pyrimidin-2-yl)phenyl)azetidine-1-carboxamide], the results for the EC50 in assay [1] (setting [5]) and in assay [2] (L. donovani axenic amastigotes) were 647 nM and 73 nM, respectively.
In the case of `Cc1nc(C)c(C(=O)Nc2ccc(F)c(-c3cn4cc(-c5ncccc5C(F)F)cnc4n3)c2)o1` [Compound 588], the EC50 was found to be 459 nM in assay [1] (setting [5]) and 19 nM in assay [2] (L. donovani axenic amastigotes).
As to `Cc1nc(C)c(C(=O)Nc2ccc(F)c(-c3cn4cc(-c5ncccc5C(F)(F)F)cnc4n3)c2)o1` [Compound 589], the EC50 turned out to be 375 nM in assay [1] (setting [5]) and 22 nM in assay [2] (L. donovani axenic amastigotes).
For `Cc1nc(C)c(C(=O)Nc2ccc(F)c(-c3cn4cc(CC(C)C)cnc4n3)c2)o1` [Compound 590, N-(4-fluoro-3-(6-isobutylimidazo[1,2-a]pyrimidin-2-yl)phenyl)-2,4-dimethyloxazole-5-carboxamide] the same measures were 45 nM and 24 nM.
Consider `Cc1nc(C)c(C(=O)Nc2ccc(F)c(-c3cn4cc(CC(C)(C)C)cnc4n3)c2)o1` [Compound 591], for which the EC50 in assay [1] (setting [5]) was greater than 50000 nM; in assay [2] (L. donovani axenic amastigotes), 28 nM.
With `Cc1nc(C)c(C(=O)Nc2ccc(F)c(-c3cn4cc(CC5CCC5)cnc4n3)c2)o1` [Compound 613, N-(3-(6-(cyclobutylmethyl)imidazo[1,2-a]pyrimidin-2-yl)-4-fluorophenyl)-2,4-dimethyloxazole-5-carboxamide], the EC50 in assay [1] (setting [5]) was greater than 50000 nM; in assay [2] (L. donovani axenic amastigotes), 30 nM.
As to `Cc1nc(C)c(C(=O)Nc2ccc(F)c(-c3cn4cc(CC5OCCO5)cnc4n3)c2)o1` [Compound 614], the figures for the EC50 in assay [1] (setting [5]) and in assay [2] (L. donovani axenic amastigotes) were greater than 50000 nM and 389 nM, respectively.
With `Cc1nc(C)c(C(=O)Nc2ccc(F)c(-c3cn4cc(C5C6CCCC5C6)cnc4n3)c2)o1` (centres unmarked) [Compound 615], the EC50 in assay [2] (L. donovani axenic amastigotes) was 82 nM.
Consider `Cc1nc(C)c(C(=O)Nc2ccc(F)c(-c3cn4cc(CN5CCOCC5)cnc4n3)c2)o1` [Compound 616, N-(4-fluoro-3-(6-(morpholinomethyl)imidazo[1,2-a]pyrimidin-2-yl)phenyl)-2,4-dimethyloxazole-5-carboxamide], for which the figures for the EC50 in assay [1] (setting [5]) and in assay [2] (L. donovani axenic amastigotes) were greater than 50000 nM and 602 nM, respectively.
Regarding `Cc1nc(C)c(C(=O)Nc2ccc(F)c(-c3cn4cc(CN(C)C)cnc4n3)c2)o1` [Compound 617], the EC50 in assay [2] (L. donovani axenic amastigotes) was 3440 nM.

What is called EC50 is the concentration giving half of the maximal effect.
